Usually MIC stands for the lowest concentration found to suppress growth.

Converted amounts (≈) assume the structure as drawn.

The values below come from patent US4440934A, “5-(4-Hydroxyphenyl) hydantoin derivatives” (Pacific Chemical Ind. Co., Ltd., priority 1981, dated 1984).

What all share (format): cell-based
The subject of one test is molds and yeast. Put plainly: fungistatic activity, summary over molds and yeast. The settings on record: from table 2. As to the method: (§1) In order to assay the effectiveness of the compounds of the present invention, the MIC(minimum inhibitory concentration) on bacteria, yeast and fungi were determined.
(§2) For the evaluation of fungistatic activity, each compound was serially diluted in test tubes to give the desired concentration when mixed with 20 ml of steriled molten sabouraud dextrose agar, and poured into sterile petri dishes.
(§3) After the medium was solidified, the spore-suspension of the each test organisms were inoculated by streaking and incubated at 25 C. for 7 days.
(§4) The minimum concentration of the compound effective for inhibiting the growth is determined by examining the growth of the each organism.
(§5) In the above mentioned method the MIC for yeast and molds of the compounds A,B,C,D and E were obtained and can be seen from the table 2.

Another test concerns bacteria. Put plainly: MIC against bacteria, summary over the test bacteria. The following applies: for MIC: 48 h, four bacteria of table 1, read-out: MIC value (range over the test bacteria). The procedure:
as §1
(§6) Minimum inhibitory concentrations were determined according to following procedure.
(§7) For the bacteriostatic activity, the said invention compounds were serially diluted with 10 ml of sterile nutrient broth. Each tube was inoculated with 1 drop of an aqueous suspension of the various test organisms containing approximately 1×10^6 organisms/ml and incubated at 37 C. for 48 hrs. After incubation, the IMC of the said invention compounds were determined as the lowest concentration of compound in which no microscopic evidence of growth was observed. The compounds and the MIC value against bacteria of the compounds can be seen from the following table 1.

Test [1] has as its system micro-organisms, including bacteria, yeast and molds. In words: antimicrobial activity, bacteria, yeast and molds. The settings on record: comparison of table 2 with table 1. The procedure:
as §1, §6, §7, §2, §3, §4

The subject of a further test is Candida albicans. In words: MIC for yeast (sabouraud dextrose agar). The following applies: 168 h, 25 C., 7 days, read-out: MIC for molds and yeast. The procedure:
as §1, §2, §3, §4, §5

In a further test the test system is Escherichia coli. Put plainly: MIC against bacteria (serial dilution in nutrient broth). The following applies: 37 C., 48 hrs. The procedure:
as §1, §6, §7

For a further test, the system named is Pseudomonas aeruginosa. The test is described as above. The settings on record: 37 C., 48 hrs. The procedure: as §1, §6, §7
A further test concerns Staphylococcus aureus. The description is as above. The following applies: 37 C., 48 hrs. The procedure:
as §1, §6, §7

The subject of a further test is Bacillus subtilis. Described as above. The following applies: 37 C., 48 hrs. The procedure:
as §1, §6, §7

A further test concerns Fusarium solani. Put plainly: MIC for molds (sabouraud dextrose agar). The following applies: 168 h, 25 C., 7 days, read-out: MIC for molds and yeast. As to the method: as §1, §2, §3, §4, §5
The test system of the next test is Aspergillus niger. Put plainly: MIC for molds (sabouraud dextrose agar). The settings on record: 168 h, 25 C., 7 days, read-out: MIC for molds and yeast. As to the method:
as §1, §2, §3, §4, §5

A further test has as its system Aspergillus flavus. In words: MIC for molds (sabouraud dextrose agar). The settings on record: 168 h, 25 C., 7 days, read-out: MIC for molds and yeast. As to the method:
as §1, §2, §3, §4, §5

In a further test the test system is Tricoderma virid. Put plainly: MIC for molds (sabouraud dextrose agar). The settings on record: 168 h, 25 C., 7 days, read-out: MIC for molds and yeast. As to the method:
as §1, §2, §3, §4, §5

Regarding `O=C1C(c2ccc(O)cc2)N(CO)C(=O)N1CO` (centres unmarked) [B, 5-(4-hydroxyphenyl)-1,3-bis (hydroxymethyl)hydantoin], the “fungistatic activity compared with the compounds C and D” value in the test on molds and yeast is “stronger fungistatic activities than the compounds C and D”. Further, the minimum inhibitory concentration (MIC) with bacteria is 100 to 200 µg/mL (≈ 0.396 to 0.793 mM); with Candida albicans it was 2000 µg/mL (≈ 7.93 mM); in the test with Escherichia coli, 100 µg/mL (≈ 0.396 mM); against Pseudomonas aeruginosa, 100 µg/mL (≈ 0.396 mM); in the test on Staphylococcus aureus, 100 µg/mL (≈ 0.396 mM); against Bacillus subtilis it was 200 µg/mL (≈ 0.793 mM). Moreover, the MIC in the test with Fusarium solani is 1000 µg/mL (≈ 3.96 mM); in the test on Aspergillus niger it was 1000 µg/mL (≈ 3.96 mM); in the test on Aspergillus flavus, 2000 µg/mL (≈ 7.93 mM); in the test on Tricoderma virid, 1000 µg/mL (≈ 3.96 mM). For the same compound, the “activity against bacteria compared with fungi and yeast” value in test [1] was “by far stronger activities against bacteria than fungi and yeast”.

Take `O=C1NC(c2ccc(O)cc2)C(=O)N1CO` (centres unmarked) [A, 5-(4-hydroxyphenyl)-3-hydroxymethylhydantoin]: in the test with molds and yeast, the “fungistatic activity compared with the compounds C and D” value was “stronger fungistatic activities than the compounds C and D”. In addition, the MIC was 100 to 300 µg/mL (≈ 0.45 to 1.35 mM) in the test with bacteria; 4000 µg/mL (≈ 18 mM) in the test with Candida albicans; 100 µg/mL (≈ 0.45 mM) with Escherichia coli; 200 µg/mL (≈ 0.9 mM) with Pseudomonas aeruginosa; 200 µg/mL (≈ 0.9 mM) against Staphylococcus aureus; 300 µg/mL (≈ 1.35 mM) with Bacillus subtilis. Also, the minimal inhibitory concentration (MIC) in the test on Fusarium solani came to 1500 µg/mL (≈ 6.75 mM); in the test on Aspergillus niger it was 2000 µg/mL (≈ 9 mM); with Aspergillus flavus, 3000 µg/mL (≈ 13.5 mM); in the test on Tricoderma virid, 1000 µg/mL (≈ 4.5 mM). For the same compound, the “strength relative to compound C and D (times as strong)” value in the test with bacteria (from MIC values of table 1) is “about 10 times”. The “activity against bacteria compared with fungi and yeast” value in test [1] was “by far stronger activities against bacteria than fungi and yeast”.

As to `O=C1NC(c2ccc(O)c(Cl)c2)C(=O)N1CO` (centres unmarked) [E, 5-(3-Chloro-4-hydroxyphenyl)-3-hydroxymethylhydantoin], the “fungistatic activity compared with the compounds C and D” value with molds and yeast is “stronger fungistatic activities than the compounds C and D”. In addition, the MIC is 100 to 500 µg/mL (≈ 0.39 to 1.95 mM) in the test with bacteria; 2000 µg/mL (≈ 7.79 mM) in the test with Candida albicans; 100 µg/mL (≈ 0.39 mM) in the test with Escherichia coli; 100 µg/mL (≈ 0.39 mM) against Pseudomonas aeruginosa; 100 µg/mL (≈ 0.39 mM) with Staphylococcus aureus; 500 µg/mL (≈ 1.95 mM) in the test with Bacillus subtilis. Also, the MIC was found to be 1000 µg/mL (≈ 3.9 mM) in the test with Fusarium solani, 2000 µg/mL (≈ 7.79 mM) in the test on Aspergillus niger, 2000 µg/mL (≈ 7.79 mM) with Aspergillus flavus and 1000 µg/mL (≈ 3.9 mM) with Tricoderma virid. The “activity against bacteria compared with fungi and yeast” value in [1] was “by far stronger activities against bacteria than fungi and yeast”.

In the case of `CC(O)N1C(=O)C(c2ccc(O)cc2)N(C(C)O)C1=O` (centres unmarked) [C, 5-(4-hydroxyphenyl)-1,3-bis (1-hydroxyethyl)hydantoin], the MIC in the test on bacteria was 700 to 1500 µg/mL (≈ 2.5 to 5.35 mM); in the test on Candida albicans, 5000 µg/mL (≈ 17.8 mM); in the test with Escherichia coli it was 700 µg/mL (≈ 2.5 mM); in the test on Pseudomonas aeruginosa, 1200 µg/mL (≈ 4.28 mM); against Staphylococcus aureus, 700 µg/mL (≈ 2.5 mM); in the test with Bacillus subtilis, 1000 µg/mL (≈ 3.57 mM). Besides, the MIC in the test on Fusarium solani is 3000 µg/mL (≈ 10.7 mM); with Aspergillus niger, 4000 µg/mL (≈ 14.3 mM); in the test with Aspergillus flavus, 5000 µg/mL (≈ 17.8 mM); in the test on Tricoderma virid it was 3000 µg/mL (≈ 10.7 mM). In addition, the “activity against bacteria compared with fungi and yeast” value in [1] was “by far stronger activities against bacteria than fungi and yeast”.

With `CCC(O)N1C(=O)C(c2ccc(O)cc2)N(C(O)CC)C1=O` (centres unmarked) [D, 5-(4-hydroxyphenyl)-1,3-bis (1-hydroxypropyl)hydantoin], the minimum inhibitory concentration (MIC) is 700 to 1500 µg/mL (≈ 2.27 to 4.86 mM) in the test on bacteria; 5000 µg/mL (≈ 16.2 mM) in the test with Candida albicans; 900 µg/mL (≈ 2.92 mM) in the test with Escherichia coli; 1500 µg/mL (≈ 4.86 mM) against Pseudomonas aeruginosa; 1000 µg/mL (≈ 3.24 mM) against Staphylococcus aureus; 1200 µg/mL (≈ 3.89 mM) with Bacillus subtilis. Also, the minimal inhibitory concentration (MIC) in the test with Fusarium solani is 3000 µg/mL (≈ 9.73 mM); in the test on Aspergillus niger, 3000 µg/mL (≈ 9.73 mM); with Aspergillus flavus, 5000 µg/mL (≈ 16.2 mM); with Tricoderma virid it was 2000 µg/mL (≈ 6.49 mM). The “activity against bacteria compared with fungi and yeast” value in test [1] is “by far stronger activities against bacteria than fungi and yeast”.
